Experimental data taken from PMC11003478, “Spiro heterocycles bearing piperidine moiety as potential scaffold for antileishmanial activity: synthesis, biological evaluation, and in silico studies” (Journal of Enzyme Inhibition and Medicinal Chemistry, 2022).
Values joined by “and” are separate entries in the source; they are usually repeats but may differ in a detail not shown here. Equal entries are not always repeated. Where two headings read alike, the source gives them in different places. Each block holds one compound with its values, some of them ahead of it.

Key:
[1] = In vitro cytotoxicity testing on VERO cells; conditions: African green monkey
VERO cells = test: In vitro cytotoxicity testing on VERO cells; conditions: for SI (selectivity index; SI = CC50/IC50): CC50 VERO cells / antileishmanial IC50; for CC50 (VERO cells) higher than IC50 (promastigotes): VERO cells versus promastigotes of leishmania parasite
[2] = system: L. major axenic amastigote form; test: In vitro antileishmanial activity, axenic amastigote form; format: cell-based, Leishmania major
Procedure: (§1) We used both promastigote and amastigote forms of L. major strain for the in vitro evaluation. All experimental steps were carried out as reported earlier[35]^,[36]. The value of the compound concentration causing 50% inhibition (IC50) was calculated. The software employed is Graph Pad Prism 6 software (GraphPad Software, San Diego, CA, USA).

[3] = system: L. major promastigote form; test: In vitro antileishmanial activity, promastigote form; format: cell-based, Leishmania major; conditions: read-out: Antipromastigotes IC50, µM ± SD
Procedure: All synthesised compounds were evaluated against L. major promastigote form.
as §1

Leishmania = system: Leishmania; parameters: method as in PMID 34311084; conditions: cited from earlier work
[4] = system: L. major promastigote (folate pathway, DHFR and PTR1); test: Reversal of antileishmanial activity by folic acid and folinic acid (folate pathway inhibition); format: cell-based, Leishmania major; conditions: for Percentage survival, Folic acid 100 µM / Percentage survival, No Cpd added: test compound above its IC50 (trimethoprim 100 µM); for Percentage survival, No Cpd added: no folic or folinic acid; for Percentage survival, Folic acid 20µM: test compound above its IC50, folic acid 20µM; for Percentage survival, Folinic acid 20 µM: test compound above its IC50, folinic acid 20 µM; for Percentage survival, Folinic acid 100 µM: test compound above its IC50, folinic acid 100 µM
Procedure: It is worthy to mention that folic acid competes for the active sites of both DHFR and PTR1 while folinic acid involves in DNA synthesis without any necessity to undergo activation.
This experiment was performed on the in vitro growth assay for the promastigote and based on the previously published methodology. All experimental steps were performed as reported earlier.

[5] = system: bisubunit DNA topoisomerase IB of L. donovani; parameters: method as in PMID 27503653; conditions: cited from earlier work
amastigote = system: amastigote; parameters: method as in PMID 27503653; conditions: read-out: Anti-amastigote EC50; cited from earlier work
promastigote = system: promastigote; parameters: method as in PMID 27503653; conditions: read-out: Anti-promastigote EC50; cited from earlier work
[6] = VERO cells (African green monkey kidney cells)
[7] = Leishmania major, L. major axenic amastigote, 50% growth inhibition, read-out: Antiamastigote IC50, µM ± SD
[8] = Leishmania major, L. major promastigote, 50% growth inhibition
[9] = Leishmania major, read-out: Antiamastigote IC50, µM ± SD, L. major axenic amastigote, 50% growth inhibition

IC50 [2, 7]: 8.08 ± 0.24 µM
IC50 ([3]; L. major promastigote, 50% growth inhibition): 7.9 ± 0.28 µM
IC50 [3, 8]: 7.89 µM
Structure (SMILES): CCCCCCCCCCCCCCCCOP(=O)([O-])OCC[N+](C)(C)C [Miltefosine, reference compound]
CC50 at 72 h [1, 6]: 99.7 µM
SI (selectivity index; SI = CC50/IC50) (VERO cells): 12.6

Structure (SMILES): CN(C)c1ccc(/C=N/N2C(=O)C(C#N)=CC23c2ccccc2Nc2ccccc23)cc1 [C]
Antileishmanial EC50 (Leishmania): 0.97 µg/mL

melting point: > 300 °C
Structure (SMILES): N#CC1=C(N)N(c2ccccc2)C2(CNC1c1ccccc1)CC(c1ccccc1)N(Cc1ccccc1)C(c1ccccc1)C2 (stereo not drawn) [Compound 7a, 8-Amino-3-benzyl-2,4,7,10-tetraphenyl-3,7,11-triazaspiro[5.6]dodec-8-ene-9-carbonitrile]

IC50 [2, 7]: 4.89 ± 0.34 µM
melting point: 168 to 170 °C
IC50 [3, 8]: 3.27 ± 0.32 µM
Structure (SMILES): N=C1N(c2ccccc2)C(=S)N(c2ccccc2)C12CC(c1ccccc1)N(Cc1ccccc1)C(c1ccccc1)C2 (stereo not drawn) [Compound 11b, 8-Benzyl-4-imino-1,3,7,9-tetraphenyl-1,3,8-triazaspiro[4.5]decane-2-thione]

Structure (SMILES): O=C1CNC(=O)C2(CC(c3ccccc3)N(Cc3ccccc3)C(c3ccccc3)C2)N1c1ccccc1 (stereo not drawn) [Compound 9a, 9-Benzyl-1,8,10-triphenyl-1,4,9-triazaspiro[5.5]undecane-2,5-dione]
CC50 at 72 h [1]: 125 µg/mL and 249 µM
SI (selectivity index; SI = CC50/IC50) (VERO cells): 497.37
CC50 (VERO cells) higher than IC50 (promastigotes) (VERO cells): at least 2 orders of magnitude
IC50 [2, 9]: 0.5 µM
IC50 ([2]; Leishmania major, read-out: Antileishmanial IC50 µM, IC50 used for the selectivity index in Table 4): 0.501 µM
IC50 ([2]; read-out: Antiamastigote IC50, µM ± SD, L. major axenic amastigote, 50% growth inhibition): 0.501 ± 0.16 µM
melting point: 201 to 203 °C
Percentage survival, Folic acid 100 µM [4]: 84%
Percentage survival, No Cpd added [4]: 26%
Percentage survival, Folic acid 20µM [4]: 76%
Percentage survival, Folinic acid 20 µM [4]: 80%
Percentage survival, Folinic acid 100 µM [4]: 92%
IC50 ([3]; Leishmania major): 0.41 ± 0.04 µM

IC50 [2, 7]: 3.43 ± 0.14 µM
IC50 [3, 8]: 2.21 ± 0.22 µM
Structure (SMILES): N=C1NNC2(CC(c3ccccc3)N(Cc3ccccc3)C(c3ccccc3)C2)S1 (stereo not drawn) [Compound 12, 8-Benzyl-7,9-diphenyl-4-thia-1,2,8-triazaspiro[4.5]decan-3-imine]

IC50 [2, 7]: 4.87 ± 0.32 µM
melting point: 180 to 183 °C
IC50 [3, 8]: 2.44 ± 0.22 µM
Structure (SMILES): N=C1N(c2ccccc2)C(=O)N(c2ccccc2)C12CC(c1ccccc1)N(Cc1ccccc1)C(c1ccccc1)C2 (stereo not drawn) [Compound 11a, 8-Benzyl-4-imino-1,3,7,9-tetraphenyl-1,3,8-triazaspiro[4.5]decan-2-one]

IC50 [2, 7]: 0.89 µM
melting point: 188 to 190 °C
IC50 [3, 8]: 1.12 ± 0.12 µM
Structure (SMILES): O=C1NC(=O)C2(CC(c3ccccc3)N(Cc3ccccc3)C(c3ccccc3)C2)N1c1ccccc1 (stereo not drawn) [Compound 8a, 8-Benzyl-1,7,9-triphenyl-1,3,8-triazaspiro[4.5]decane-2,4-dione]
CC50 at 72 h [1, 6]: 62.5 µg/mL and 128 µM
SI (selectivity index; SI = CC50/IC50) (VERO cells): 143.38
CC50 (VERO cells) higher than IC50 (promastigotes) (VERO cells): at least 2 orders of magnitude
IC50 ([2]; Leishmania major, IC50 used for the selectivity index in Table 4, read-out: Antileishmanial IC50): 0.895 µM
Percentage survival, Folic acid 100 µM [4]: 81%
Percentage survival, No Cpd added [4]: 20%
Percentage survival, Folic acid 20µM [4]: 72%
Percentage survival, Folinic acid 20 µM [4]: 76%
Percentage survival, Folinic acid 100 µM [4]: 87%

Structure (SMILES): COC(=O)C1CC2CCCN2C12C(=O)N(Cc1ccccc1)c1ccccc12 (stereo not drawn) [B]
inhibition of bisubunit DNA topoisomerase IB [5]: catalytic inhibitor
EC50 (amastigote): 0.53 to 0.9 µM
EC50 (promastigote): 1.24 to 1.41 µM

IC50 [2, 7]: 3.24 ± 0.22 µM
melting point: 209 to 211 °C
IC50 [3, 8]: 1.34 ± 0.14 µM
Structure (SMILES): c1ccc(CN2C(c3ccccc3)CC3(CC2c2ccccc2)NCCN3)cc1 (stereo not drawn) [Compound 13, 8-Benzyl-7,9-diphenyl-1,4,8-triazaspiro[4.5]decane]

IC50 [2, 7]: 5.45 ± 0.22 µM
melting point: 128 to 130 °C
IC50 [3, 8]: 5.4 ± 0.24 µM
Structure (SMILES): O=C1NCC2(CC(c3ccccc3)N(Cc3ccccc3)C(c3ccccc3)C2)N1c1ccccc1 (stereo not drawn) [Compound 5a, 8-Benzyl-1,7,9-triphenyl-1,3,8-triazaspiro[4.5]decan-2-one]

Structure (SMILES): O=C1CNCC2(CC(c3ccccc3)N(Cc3ccccc3)C(c3ccccc3)C2)N1c1ccccc1 (stereo not drawn) [Compound 6a, 9-Benzyl-1,8,10-triphenyl-1,4,9-triazaspiro[5.5]undecan-2-one]
IC50 [2, 9]: 4.67 ± 0.16 µM
melting point: 150 to 153 °C
IC50 ([3]; Leishmania major): 4.42 ± 0.22 µM

Structure (SMILES): COc1cc(Cc2cnc(N)nc2N)cc(OC)c1OC [Trimethoprim, reference compound]
Percentage survival, Folic acid 100 µM [4]: 99%
Percentage survival, No Cpd added [4]: 72%
